Measurements from ChEMBL document CHEMBL5214938, “Design, synthesis and biological evaluation of pteridine-7(8H)-one derivatives as potent and selective CDK4/6 inhibitors” (Bioorg Med Chem Lett, 2022).

Experiments:
[1] = biological target: Cyclin-dependent kinase 4/cyclin D1 (Homo sapiens, UniProt P11802); assay: Inhibition of CDK4/cyclin D1 (unknown origin); type: protein-complex assay
[2] = biological target: CDK6/cyclin D1 (Homo sapiens, UniProt Q00534); assay: Inhibition of CDK6/cyclin D1 (unknown origin); type: protein-complex assay
[3] = Inhibition of CDK1/cyclin B (unknown origin); design: species or system Homo sapiens
[4] = biological target: Cyclin-dependent kinase 2/cyclin E1 (Homo sapiens, UniProt P24941); assay: Inhibition of CDK2/cyclin E1 (unknown origin); type: protein-complex assay
[5] = biological target: CDK7/Cyclin H/MNAT1 (Homo sapiens, UniProt P50613); assay: Inhibition of CDK7/cyclin H/MAT1 (unknown origin); type: protein-complex assay
[6] = biological target: CDK9/cyclin T1 (Homo sapiens, UniProt P50750); assay: Inhibition of CDK9/cyclin T1 (unknown origin); type: protein-complex assay
[7] = system: MDA-MB-231; assay: Antiproliferative activity against human MDA-MB-231 cells assessed as growth inhibition by CCK-8 assay; type: functional, cell-based
[8] = system: HCT-116; assay: Antiproliferative activity against human HCT-116 cells assessed as growth inhibition by CCK-8 assay; type: functional, cell-based
[9] = system: HT-29; assay: Antiproliferative activity against human HT-29 cells assessed as growth inhibition by CCK-8 assay; type: functional, cell-based
[10] = system: A549; assay: Antiproliferative activity against human A549 cells assessed as growth inhibition by CCK-8 assay; type: functional, cell-based
[11] = system: MDA-MB-231; assay: Induction of apoptosis in human MDA-MB-231 cells assessed as necrotic cells at 1 uM by flow cytometry (Rvb=4.37%); type: functional
[12] = system: MDA-MB-231; assay: Induction of apoptosis in human MDA-MB-231 cells assessed as early apoptotic cells at 1 uM by flow cytometry (Rvb=2.93%); type: functional
[13] = system: MDA-MB-231; assay: Induction of apoptosis in human MDA-MB-231 cells assessed as late apoptotic cells at 1 uM by flow cytometry (Rvb=0.72%); type: functional
[14] = system: MDA-MB-231; assay: Induction of apoptosis in human MDA-MB-231 cells assessed as viable cells at 1 uM by flow cytometry (Rvb=92.08%); type: functional; conditions: read-out: Activity
[15] = system: MDA-MB-231; assay: Induction of apoptosis in human MDA-MB-231 cells assessed as necrotic cells at 5 uM by flow cytometry (Rvb=4.37%); type: functional
[16] = system: MDA-MB-231; assay: Induction of apoptosis in human MDA-MB-231 cells assessed as early apoptotic cells at 5 uM by flow cytometry (Rvb=2.93%); type: functional
[17] = system: MDA-MB-231; assay: Induction of apoptosis in human MDA-MB-231 cells assessed as late apoptotic cells at 5 uM by flow cytometry (Rvb=0.72%); type: functional
[18] = system: MDA-MB-231; assay: Induction of apoptosis in human MDA-MB-231 cells assessed as viable cells at 5 uM by flow cytometry (Rvb=92.08%); type: functional; conditions: read-out: Activity
[19] = system: HCT-116; assay: Induction of apoptosis in human HCT-116 cells assessed as necrotic cells at 1 uM by flow cytometry (Rvb=1.57%); type: functional
[20] = system: HCT-116; assay: Induction of apoptosis in human HCT-116 cells assessed as early apoptotic cells at 1 uM by flow cytometry (Rvb=6.90%); type: functional
[21] = system: HCT-116; assay: Induction of apoptosis in human HCT-116 cells assessed as late apoptotic cells at 1 uM by flow cytometry (Rvb=4.92%); type: functional
[22] = system: HCT-116; assay: Induction of apoptosis in human HCT-116 cells assessed as viable cells at 1 uM by flow cytometry (Rvb=86.61%); type: functional; conditions: read-out: Activity
[23] = system: HCT-116; assay: Induction of apoptosis in human HCT-116 cells assessed as necrotic cells at 5 uM by flow cytometry (Rvb=1.57%); type: functional
[24] = system: HCT-116; assay: Induction of apoptosis in human HCT-116 cells assessed as early apoptotic cells at 5 uM by flow cytometry (Rvb=6.90%); type: functional
[25] = system: HCT-116; assay: Induction of apoptosis in human HCT-116 cells assessed as late apoptotic cells at 5 uM by flow cytometry (Rvb=4.92%); type: functional
[26] = system: HCT-116; assay: Induction of apoptosis in human HCT-116 cells assessed as viable cells at 5 uM by flow cytometry (Rvb=86.61%); type: functional; conditions: read-out: Activity
[27] = system: HT-29; assay: Induction of apoptosis in human HT-29 cells assessed as necrotic cells at 1 uM by flow cytometry (Rvb=2.35%); type: functional
[28] = system: HT-29; assay: Induction of apoptosis in human HT-29 cells assessed as early apoptotic cells at 1 uM by flow cytometry (Rvb=8.68%); type: functional
[29] = system: HT-29; assay: Induction of apoptosis in human HT-29 cells assessed as late apoptotic cells at 1 uM by flow cytometry (Rvb=5.03%); type: functional
[30] = system: HT-29; assay: Induction of apoptosis in human HT-29 cells assessed as viable cells at 1 uM by flow cytometry (Rvb=83.94%); type: functional; conditions: read-out: Activity
[31] = system: HT-29; assay: Induction of apoptosis in human HT-29 cells assessed as necrotic cells at 5 uM by flow cytometry (Rvb=2.35%); type: functional
[32] = system: HT-29; assay: Induction of apoptosis in human HT-29 cells assessed as early apoptotic cells at 5 uM by flow cytometry (Rvb=8.68%); type: functional
[33] = system: HT-29; assay: Induction of apoptosis in human HT-29 cells assessed as late apoptotic cells at 5 uM by flow cytometry (Rvb=5.03%); type: functional
[34] = system: HT-29; assay: Induction of apoptosis in human HT-29 cells assessed as viable cells at 5 uM by flow cytometry (Rvb=83.94%); type: functional; conditions: read-out: Activity

Sequence of Cyclin-dependent kinase 4/cyclin D1 (P11802 whole entry): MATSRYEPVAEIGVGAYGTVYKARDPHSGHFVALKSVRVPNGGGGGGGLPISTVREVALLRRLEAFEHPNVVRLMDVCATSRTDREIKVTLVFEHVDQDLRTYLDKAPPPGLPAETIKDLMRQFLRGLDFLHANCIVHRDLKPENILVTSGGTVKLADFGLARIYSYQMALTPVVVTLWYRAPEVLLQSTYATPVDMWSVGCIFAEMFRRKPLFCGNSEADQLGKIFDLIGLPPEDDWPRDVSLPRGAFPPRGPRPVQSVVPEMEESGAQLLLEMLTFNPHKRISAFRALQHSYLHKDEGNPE
Sequence of Cyclin-dependent kinase 4/cyclin D1 (P24385 whole entry, further chain): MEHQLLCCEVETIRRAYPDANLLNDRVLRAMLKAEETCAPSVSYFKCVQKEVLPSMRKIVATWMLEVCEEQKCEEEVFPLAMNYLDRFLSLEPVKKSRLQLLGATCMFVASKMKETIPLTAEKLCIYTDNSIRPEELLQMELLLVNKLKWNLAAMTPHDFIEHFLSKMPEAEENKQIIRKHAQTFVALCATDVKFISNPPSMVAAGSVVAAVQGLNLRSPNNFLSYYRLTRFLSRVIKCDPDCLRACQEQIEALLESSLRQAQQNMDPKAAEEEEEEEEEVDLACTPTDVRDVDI
Sequence of CDK6/cyclin D1 (P24385 whole entry): as the sequence (P24385 whole entry, further chain) above
Sequence of CDK6/cyclin D1 (Q00534 whole entry): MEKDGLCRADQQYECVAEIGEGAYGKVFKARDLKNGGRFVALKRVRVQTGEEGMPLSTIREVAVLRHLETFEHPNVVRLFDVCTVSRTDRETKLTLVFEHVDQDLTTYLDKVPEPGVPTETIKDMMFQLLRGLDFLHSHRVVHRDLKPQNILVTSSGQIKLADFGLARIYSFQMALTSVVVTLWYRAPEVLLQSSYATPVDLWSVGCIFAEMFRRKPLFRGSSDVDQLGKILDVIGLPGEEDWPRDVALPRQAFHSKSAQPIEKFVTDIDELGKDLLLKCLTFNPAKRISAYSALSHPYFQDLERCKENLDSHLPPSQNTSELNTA
Sequence of CDK7/Cyclin H/MNAT1 (P51946 whole entry): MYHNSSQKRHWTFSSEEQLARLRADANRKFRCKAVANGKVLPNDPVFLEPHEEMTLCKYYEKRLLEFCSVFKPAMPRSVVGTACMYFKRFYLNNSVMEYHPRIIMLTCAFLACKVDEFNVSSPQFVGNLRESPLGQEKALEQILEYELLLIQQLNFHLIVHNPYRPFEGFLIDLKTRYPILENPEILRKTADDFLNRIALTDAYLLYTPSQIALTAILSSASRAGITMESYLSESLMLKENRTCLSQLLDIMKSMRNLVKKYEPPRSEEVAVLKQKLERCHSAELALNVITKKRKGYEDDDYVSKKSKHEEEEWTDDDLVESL
Sequence of CDK7/Cyclin H/MNAT1 (P50613 whole entry): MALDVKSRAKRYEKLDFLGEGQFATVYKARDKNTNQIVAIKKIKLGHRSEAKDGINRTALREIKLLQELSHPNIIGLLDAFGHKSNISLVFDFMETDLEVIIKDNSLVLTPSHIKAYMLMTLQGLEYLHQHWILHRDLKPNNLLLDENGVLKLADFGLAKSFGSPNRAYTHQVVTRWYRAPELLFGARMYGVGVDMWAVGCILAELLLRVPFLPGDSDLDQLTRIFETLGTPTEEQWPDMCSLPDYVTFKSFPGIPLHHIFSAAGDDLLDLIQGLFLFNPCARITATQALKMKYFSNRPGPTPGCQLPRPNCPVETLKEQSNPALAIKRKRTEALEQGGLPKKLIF
Sequence of CDK7/Cyclin H/MNAT1 (P51948 whole entry, further chain): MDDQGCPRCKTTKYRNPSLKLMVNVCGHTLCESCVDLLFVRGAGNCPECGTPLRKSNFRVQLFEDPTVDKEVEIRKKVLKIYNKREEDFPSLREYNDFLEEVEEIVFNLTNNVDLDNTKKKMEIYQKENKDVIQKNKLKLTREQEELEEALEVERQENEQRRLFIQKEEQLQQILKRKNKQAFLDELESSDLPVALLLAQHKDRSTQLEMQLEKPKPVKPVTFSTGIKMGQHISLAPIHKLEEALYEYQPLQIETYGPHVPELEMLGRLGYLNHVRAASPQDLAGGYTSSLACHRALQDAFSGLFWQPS
Sequence of CDK9/cyclin T1 (O60563 whole entry): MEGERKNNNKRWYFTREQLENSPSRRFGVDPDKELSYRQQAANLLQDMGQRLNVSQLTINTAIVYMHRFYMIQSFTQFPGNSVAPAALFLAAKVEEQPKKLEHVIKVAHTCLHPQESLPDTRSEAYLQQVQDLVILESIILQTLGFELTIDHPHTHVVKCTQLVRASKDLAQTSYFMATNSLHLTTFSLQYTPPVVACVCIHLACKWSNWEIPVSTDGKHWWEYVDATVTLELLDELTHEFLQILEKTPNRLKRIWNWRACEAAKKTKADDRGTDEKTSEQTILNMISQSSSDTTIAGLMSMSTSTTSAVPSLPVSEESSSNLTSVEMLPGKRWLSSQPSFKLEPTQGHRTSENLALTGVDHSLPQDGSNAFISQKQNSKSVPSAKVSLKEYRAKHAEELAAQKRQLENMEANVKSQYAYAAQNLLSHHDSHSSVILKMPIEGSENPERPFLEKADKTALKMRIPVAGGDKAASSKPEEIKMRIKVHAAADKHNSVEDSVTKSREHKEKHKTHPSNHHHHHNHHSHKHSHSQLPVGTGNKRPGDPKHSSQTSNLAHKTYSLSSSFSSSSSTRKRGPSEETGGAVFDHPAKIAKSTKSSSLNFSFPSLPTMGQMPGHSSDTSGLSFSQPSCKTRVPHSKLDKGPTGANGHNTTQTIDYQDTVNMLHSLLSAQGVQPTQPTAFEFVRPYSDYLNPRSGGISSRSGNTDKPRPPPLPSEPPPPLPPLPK
Sequence of CDK9/cyclin T1 (P50750 whole entry): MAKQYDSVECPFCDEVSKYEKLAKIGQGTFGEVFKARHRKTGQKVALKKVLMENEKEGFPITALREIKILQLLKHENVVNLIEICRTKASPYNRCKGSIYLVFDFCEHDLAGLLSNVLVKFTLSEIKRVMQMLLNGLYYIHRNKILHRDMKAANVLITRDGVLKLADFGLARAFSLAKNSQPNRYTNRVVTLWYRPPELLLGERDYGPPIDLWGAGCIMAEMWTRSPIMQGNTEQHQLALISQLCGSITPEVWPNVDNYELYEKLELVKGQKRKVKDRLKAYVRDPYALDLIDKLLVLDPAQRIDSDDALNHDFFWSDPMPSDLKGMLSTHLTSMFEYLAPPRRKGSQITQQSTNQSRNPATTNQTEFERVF

Structure (SMILES): CC(=O)c1nc2cnc(Nc3ccc(N4CCN(C)CC4)cc3)nc2n(C2CCCC2)c1=O
- IC50 [1]: 36.6 nM
- IC50 [2]: 53.4 nM
- IC50 [3]: > 10000 nM
- IC50 [4]: > 10000 nM
- IC50 [5]: > 10000 nM
- IC50 [6]: > 10000 nM
- IC50 [7]: 2200 nM
- IC50 [8]: 2400 nM
- IC50 [9]: 1500 nM
- IC50 [10]: 3600 nM

Structure (SMILES): CCN1CCN(c2ccc(Nc3ncc4nc(C(C)=O)c(=O)n(C5CCCC5)c4n3)c(N)c2)CC1
- IC50 [1]: 7890 nM
- IC50 [2]: 7080 nM

Structure (SMILES): CCN1CCN(c2ccc(Nc3ncc4nc(-c5ccco5)c(=O)n(C5CCCC5)c4n3)cc2)CC1
- IC50 [1]: 236 nM
- IC50 [2]: 940 nM

Structure (SMILES): CC(=O)c1nc2cnc(Nc3ccc(N4CCN(C5CCCC5)CC4)cc3)nc2n(C2CCCC2)c1=O
- IC50 [1]: 36.3 nM
- IC50 [2]: 138 nM

Structure (SMILES): CC(=O)c1nc2cnc(Nc3ccc(N4CCCC4)cc3)nc2n(C2CCCC2)c1=O
- IC50 [1]: 368 nM
- IC50 [2]: > 10000 nM

Structure (SMILES): CC(=O)c1nc2cnc(Nc3ccc(N4CCC(N5CCN(C)CC5)CC4)cc3)nc2n(C2CCCC2)c1=O
- IC50 [1]: 30.1 nM
- IC50 [2]: 48 nM

Structure (SMILES): CC(=O)c1nc2cnc(Nc3ccc(N4CCCCC4)cc3)nc2n(C2CCCC2)c1=O
- IC50 [1]: 64.9 nM
- IC50 [2]: 564 nM

Structure (SMILES): CCN1CCN(c2ccc(Nc3ncc4nc(C(C)=O)c(=O)n(C5CCCC5)c4n3)cc2)CC1
- IC50 [1]: 16.7 nM
- IC50 [2]: 30.5 nM
- IC50 [3]: > 10000 nM
- IC50 [4]: 7940 nM
- IC50 [5]: > 10000 nM
- IC50 [6]: 8040 nM
- IC50 [7]: 1900 nM
- IC50 [8]: 1900 nM
- IC50 [9]: 4000 nM
- IC50 [10]: 9200 nM
- Activity [11]: 4.16%
- Activity [12]: 3.21%
- Activity [13]: 0.86%
- viability at 1 µM [14]: 91.8%
- Activity [15]: 3.55%
- Activity [16]: 6.67%
- Activity [17]: 1.75%
- viability at 5 µM [18]: 88%
- Activity [19]: 0.57%
- Activity [20]: 9.54%
- Activity [21]: 8.42%
- viability at 1 µM [22]: 81.5%
- Activity [23]: 2.16%
- Activity [24]: 14.39%
- Activity [25]: 13.39%
- viability at 5 µM [26]: 70.2%
- Activity [27]: 1.21%
- Activity [28]: 15.39%
- Activity [29]: 12.67%
- viability at 1 µM [30]: 70.7%
- Activity [31]: 0.99%
- Activity [32]: 14.86%
- Activity [33]: 15.42%
- viability at 5 µM [34]: 68.7%

Structure (SMILES): CC(=O)c1nc2cnc(Nc3ccc(N4CCOCC4)cc3)nc2n(C2CCCC2)c1=O
- IC50 [1]: 74.4 nM
- IC50 [2]: 168 nM

Structure (SMILES): CCN1CCN(c2ccc(Nc3ncc4nc(C(C)=O)c(=O)n(C5CCCC5)c4n3)c(CO)c2)CC1
- IC50 [1]: 110 nM
- IC50 [2]: 1210 nM

Structure (SMILES): O=c1c(-c2ccco2)nc2cnc(Nc3ccc(N4CCOCC4)cc3)nc2n1C1CCCC1
- IC50 [1]: > 10000 nM
- IC50 [2]: > 10000 nM

Structure (SMILES): COc1cc(N2CCN(C)CC2)ccc1Nc1ncc2nc(C(C)=O)c(=O)n(C3CCCC3)c2n1
- IC50 [1]: 4480 nM
- IC50 [2]: 4740 nM

Structure (SMILES): CC(=O)c1c(C)c2cnc(Nc3ccc(N4CCNCC4)cn3)nc2n(C2CCCC2)c1=O [PALBOCICLIB]
- IC50 [8]: > 10000 nM
- IC50 [9]: 9300 nM
- IC50 [10]: > 10000 nM

Structure (SMILES): CN[C@@H]1C[C@H]2O[C@@](C)([C@@H]1OC)n1c3ccccc3c3c4c(c5c6ccccc6n2c5c31)C(=O)NC4 [STAUROSPORINE]
- IC50 [3]: 6.6 nM
